Measurements taken from ChEMBL document CHEMBL1201862, “PubChem BioAssay data set” (2004).
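Tested at 5 concentrations; 48 h exposure; 96-well plates; endpoints linearly interpolated, else capped at highest concentration. The concentration for 50% growth inhibition is given as GI50.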 Activity calls are given as the source filed them. Rule as the data show it: active = GI50 up to about 1.1 µM and inactive = higher.

Experiments:
Test in all cases: growth of human tumour cells (NCI), 48 h
786-0 = system: 786-0
A498 = system: A498
A549 = system: A549
ACHN = system: ACHN
CAKI-1 = system: CAKI-1
CCRF-CEM = system: CCRF-CEM
DLD-1 = system: DLD-1
DMS-114 = system: DMS-114
DMS-273 = system: DMS-273
EKVX = system: EKVX
HCC 2998 = system: HCC 2998
HCT-116 = system: HCT-116
HCT-15 = system: HCT-15
HL-60 = system: HL-60
HOP-18 = system: HOP-18
HOP-92 = system: HOP-92
HT-29 = system: HT-29
K562 = system: K562
KM-20L2 = system: KM-20L2
KM12 = system: KM12
LOX IMVI = system: LOX IMVI
LXFL 529 = system: LXFL 529
M14 = system: M14
M19-MEL = system: M19-MEL
MOLT-4 = system: MOLT-4
Malme-3M = system: Malme-3M
NCI-H226 = system: NCI-H226
NCI-H23 = system: NCI-H23
NCI-H460 = system: NCI-H460
NCI-H522 = system: NCI-H522
OVCAR-3 = system: OVCAR-3
OVCAR-4 = system: OVCAR-4
OVCAR-5 = system: OVCAR-5
OVCAR-8 = system: OVCAR-8
RPMI-8226 = system: RPMI-8226
RXF 393 = system: RXF 393
SF-268 = system: SF-268
SF-295 = system: SF-295
SF-539 = system: SF-539
SK-MEL-28 = system: SK-MEL-28
SK-MEL-2 = system: SK-MEL-2
SK-MEL-5 = system: SK-MEL-5
SN12C = system: SN12C
SNB-19 = system: SNB-19
SNB-75 = system: SNB-75
SNB-78 = system: SNB-78
SR = system: SR
SW-620 = system: SW-620
TK-10 = system: TK-10
U-251 = system: U-251
UACC-257 = system: UACC-257
UACC-62 = system: UACC-62
UO-31 = system: UO-31
XF498 = system: XF498
HOP-62 = system: HOP-62
IGROV-1 = system: IGROV-1
SK-OV-3 = system: SK-OV-3
COLO 205 = system: COLO 205

O=c1c2cc3ccccc3n2c(=O)c2cc3ccccc3n12
GI50 (786-0): > 100 µM (inactive) | GI50 (A498): > 100 µM (inactive) | GI50 (A549): > 100 µM (inactive) | GI50 (ACHN): > 100 µM (inactive) | GI50 (CAKI-1): > 100 µM (inactive) | GI50 (CCRF-CEM): > 100 µM (inactive) | GI50 (DLD-1): > 100 µM (inactive) | GI50 (DMS-114): > 100 µM (inactive) | GI50 (DMS-273): > 100 µM (inactive) | GI50 (EKVX): > 100 µM (inactive) | GI50 (HCC 2998): > 100 µM (inactive) | GI50 (HCT-116): > 100 µM (inactive) | GI50 (HCT-15): > 100 µM | GI50 (HL-60): > 100 µM (inactive) | GI50 (HOP-18): > 100 µM (inactive) | GI50 (HOP-92): > 100 µM (inactive) | GI50 (HT-29): > 100 µM (inactive) | GI50 (K562): > 100 µM (inactive) | GI50 (KM-20L2): > 100 µM (inactive) | GI50 (KM12): 89.5 µM (inactive) | GI50 (LOX IMVI): > 100 µM (inactive) | GI50 (LXFL 529): > 100 µM (inactive) | GI50 (M14): > 100 µM (inactive) | GI50 (M19-MEL): > 100 µM (inactive) | GI50 (MOLT-4): > 100 µM (inactive) | GI50 (Malme-3M): > 100 µM (inactive) | GI50 (NCI-H226): > 100 µM (inactive) | GI50 (NCI-H23): > 100 µM (inactive) | GI50 (NCI-H460): > 100 µM (inactive) | GI50 (NCI-H522): > 100 µM (inactive) | GI50 (OVCAR-3): > 100 µM (inactive) | GI50 (OVCAR-4): > 100 µM (inactive) | GI50 (OVCAR-5): > 100 µM (inactive) | GI50 (OVCAR-8): > 100 µM (inactive) | GI50 (RPMI-8226): > 100 µM (inactive) | GI50 (RXF 393): > 100 µM (inactive) | GI50 (SF-268): > 100 µM (inactive) | GI50 (SF-295): > 100 µM (inactive) | GI50 (SF-539): > 100 µM (inactive) | GI50 (SK-MEL-28): > 100 µM (inactive) | GI50 (SK-MEL-2): > 100 µM (inactive) | GI50 (SK-MEL-5): > 100 µM (inactive) | GI50 (SN12C): > 100 µM (inactive) | GI50 (SNB-19): > 100 µM (inactive) | GI50 (SNB-75): > 100 µM (inactive) | GI50 (SNB-78): > 100 µM (inactive) | GI50 (SR): > 100 µM (inactive) | GI50 (SW-620): > 100 µM (inactive) | GI50 (TK-10): > 100 µM (inactive) | GI50 (U-251): > 100 µM (inactive) | GI50 (UACC-257): > 100 µM (inactive) | GI50 (UACC-62): > 100 µM (inactive) | GI50 (UO-31): > 100 µM (inactive) | GI50 (XF498): > 100 µM (inactive)

N#Cc1c2ccccc2c(Cc2ccc3c(c2)OCCOCCOCCOCCOCCO3)c2ccccc12
GI50 (786-0): 10.9 µM (inactive) | GI50 (A498): 13.3 µM (inactive) | GI50 (A549): 4.29 µM (inactive) | GI50 (ACHN): 9.86 µM (inactive) | GI50 (CAKI-1): 10.1 µM (inactive) | GI50 (CCRF-CEM): 3.21 µM (inactive) | GI50 (DLD-1): 10.3 µM (inactive) | GI50 (DMS-114): 10.4 µM (inactive) | GI50 (DMS-273): 4.68 µM (inactive) | GI50 (EKVX): 16.3 µM (inactive) | GI50 (HCC 2998): 11.8 µM (inactive) | GI50 (HCT-116): 6.12 µM (inactive) | GI50 (HCT-15): 5.57 µM | GI50 (HL-60): 1.85 µM (inactive) | GI50 (HOP-18): 10.1 µM (inactive) | GI50 (HOP-62): 10.3 µM (inactive) | GI50 (HOP-92): 3.99 µM (inactive) | GI50 (IGROV-1): 4.34 µM (inactive) | GI50 (K562): 3.15 µM (inactive) | GI50 (KM-20L2): 10 µM (inactive) | GI50 (KM12): 5.5 µM (inactive) | GI50 (LOX IMVI): 6.04 µM (inactive) | GI50 (LXFL 529): 5.46 µM (inactive) | GI50 (M14): 5.37 µM (inactive) | GI50 (MOLT-4): 2.82 µM (inactive) | GI50 (Malme-3M): 6.44 µM (inactive) | GI50 (NCI-H226): 11.9 µM (inactive) | GI50 (NCI-H23): 11.4 µM (inactive) | GI50 (NCI-H460): 6.7 µM (inactive) | GI50 (NCI-H522): 10.8 µM (inactive) | GI50 (OVCAR-3): 4.23 µM (inactive) | GI50 (OVCAR-4): 3 µM (inactive) | GI50 (OVCAR-5): 16.4 µM (inactive) | GI50 (OVCAR-8): 5.65 µM (inactive) | GI50 (RPMI-8226): 3.11 µM (inactive) | GI50 (RXF 393): 2.32 µM (inactive) | GI50 (SF-268): 5.28 µM (inactive) | GI50 (SF-295): 8.69 µM (inactive) | GI50 (SF-539): 14.1 µM (inactive) | GI50 (SK-MEL-28): 3.28 µM (inactive) | GI50 (SK-MEL-2): 6.34 µM (inactive) | GI50 (SK-MEL-5): 4.35 µM (inactive) | GI50 (SK-OV-3): 13.6 µM (inactive) | GI50 (SN12C): 10.1 µM (inactive) | GI50 (SNB-19): 9.66 µM (inactive) | GI50 (SNB-78): 9.14 µM (inactive) | GI50 (SR): 24.5 µM (inactive) | GI50 (SW-620): 6.71 µM (inactive) | GI50 (TK-10): 5.01 µM (inactive) | GI50 (U-251): 9.44 µM (inactive) | GI50 (UACC-257): 9.27 µM (inactive) | GI50 (UACC-62): 6.41 µM (inactive) | GI50 (UO-31): 3.85 µM (inactive) | GI50 (XF498): 10.5 µM (inactive)

CCO[C@@H]1C2C=CC(C2)[C@H]1[N+](=O)[O-] (stereo not given in full)
GI50 (786-0): > 100 µM (inactive) | GI50 (A498): > 100 µM (inactive) | GI50 (A549): > 100 µM (inactive) | GI50 (ACHN): > 100 µM (inactive) | GI50 (CAKI-1): > 100 µM (inactive) | GI50 (CCRF-CEM): 36.9 µM (inactive) | GI50 (COLO 205): > 100 µM (inactive) | GI50 (DLD-1): > 100 µM (inactive) | GI50 (DMS-114): > 100 µM (inactive) | GI50 (DMS-273): > 100 µM (inactive) | GI50 (EKVX): > 100 µM (inactive) | GI50 (HCC 2998): > 100 µM (inactive) | GI50 (HCT-116): > 100 µM (inactive) | GI50 (HCT-15): > 100 µM | GI50 (HL-60): 47.3 µM (inactive) | GI50 (HOP-18): > 100 µM (inactive) | GI50 (HOP-62): > 100 µM (inactive) | GI50 (HOP-92): > 100 µM (inactive) | GI50 (HT-29): > 100 µM (inactive) | GI50 (IGROV-1): > 100 µM (inactive) | GI50 (K562): 73.5 µM (inactive) | GI50 (KM-20L2): > 100 µM (inactive) | GI50 (KM12): > 100 µM (inactive) | GI50 (LOX IMVI): > 100 µM (inactive) | GI50 (LXFL 529): > 100 µM (inactive) | GI50 (M14): > 100 µM (inactive) | GI50 (M19-MEL): > 100 µM (inactive) | GI50 (MOLT-4): > 100 µM (inactive) | GI50 (Malme-3M): > 100 µM (inactive) | GI50 (NCI-H226): > 100 µM (inactive) | GI50 (NCI-H23): > 100 µM (inactive) | GI50 (NCI-H460): > 100 µM (inactive) | GI50 (NCI-H522): 64 µM (inactive) | GI50 (OVCAR-3): > 100 µM (inactive) | GI50 (OVCAR-4): > 100 µM (inactive) | GI50 (OVCAR-5): > 100 µM (inactive) | GI50 (OVCAR-8): > 100 µM (inactive) | GI50 (RPMI-8226): 72.1 µM (inactive) | GI50 (RXF 393): > 100 µM (inactive) | GI50 (SF-268): > 100 µM (inactive) | GI50 (SF-295): > 100 µM (inactive) | GI50 (SF-539): > 100 µM (inactive) | GI50 (SK-MEL-28): > 100 µM (inactive) | GI50 (SK-MEL-2): > 100 µM (inactive) | GI50 (SK-MEL-5): > 100 µM (inactive) | GI50 (SK-OV-3): > 100 µM (inactive) | GI50 (SN12C): > 100 µM (inactive) | GI50 (SNB-19): > 100 µM (inactive) | GI50 (SNB-75): 64.9 µM (inactive) | GI50 (SNB-78): > 100 µM (inactive) | GI50 (SW-620): > 100 µM (inactive) | GI50 (TK-10): > 100 µM (inactive) | GI50 (U-251): > 100 µM (inactive) | GI50 (UACC-257): > 100 µM (inactive) | GI50 (UACC-62): > 100 µM (inactive) | GI50 (UO-31): > 100 µM (inactive) | GI50 (XF498): > 100 µM (inactive)
